Assay results reported in patent publication US20260109708A1, “COMPOUNDS AND COMPOSITIONS USEFUL AS DEGRADERS OF MK2 KINASE” (Celgene Corporation, priority 2023, published 2026).

These molecules were tested against T1, p38a activated, mitogen-activated protein kinase-activated protein kinase 2 (MAPKAP-K2 or MK2) enzyme (Homo sapiens, UniProt P49137) (assay: MK2 OMNIA biochemical assay (AssayQuant continuous-read kinase assay)). Conditions: [MK-2]=0.05 nM, [ATP]=100 μM, [AQT0425]=10 μM.
T1 construct: purchased Invitrogen PV3317
Method in brief: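 Continuous fluorescence read (ex 360/em 485) of p38a-activated MK2 phosphorylating Sox-conjugated peptide AQT0425 in 50 mM HEPES pH 7.5, 10 mM MgCl2, 1 mM DTT; reads every 71 s for 240 min at room temperature. IC50 from initial linear slopes; apparent Kinact from single-exponential Vobs fits.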

T1 sequence (P49137 whole entry): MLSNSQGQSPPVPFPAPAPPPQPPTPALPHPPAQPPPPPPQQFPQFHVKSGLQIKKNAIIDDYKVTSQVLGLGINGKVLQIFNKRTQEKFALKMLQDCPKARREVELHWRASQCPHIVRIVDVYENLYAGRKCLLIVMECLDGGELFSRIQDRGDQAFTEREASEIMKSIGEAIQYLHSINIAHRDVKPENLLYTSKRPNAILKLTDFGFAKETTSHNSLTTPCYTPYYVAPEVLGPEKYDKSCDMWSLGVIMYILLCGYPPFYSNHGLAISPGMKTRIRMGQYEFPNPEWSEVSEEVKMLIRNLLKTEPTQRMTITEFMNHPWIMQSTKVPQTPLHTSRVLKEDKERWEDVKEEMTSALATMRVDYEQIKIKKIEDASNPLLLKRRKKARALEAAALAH

Q: Which IC50 does the source give for `C[C@@H]1CNc2c(sc3ccc4nc(-c5ccc(C6CCN(CCN7CCN(c8ccc(C9CCC(=O)NC9=O)cc8)CC7)CC6)nn5)ccc4c23)C(=O)N1` (stereo partly drawn) [Ex 37, 3-(4-(4-(2-(4-(6-((R)-10-Methyl-8-oxo-9,10,11,12-tetrahydro-8H-[1,4]diazepino[5′,6′:4,5]thieno[3,2-f]quinolin-3-yl)pyridazin-3-yl)piperidin-1-yl)ethyl)piperazin-1-yl)phenyl)piperidine-2,6-dione] here?
A: Its IC50 is < 150 nM.

Q: `C[C@@H]1CNc2c(sc3ccc4nc(-c5ccc(C6CCN(CCN7CCN(c8ccc(C9CCC(=O)NC9=O)cc8)CC7)CC6)cc5)ccc4c23)C(=O)N1` (stereo partly drawn) [Ex 27, 3-(4-(4-(2-(4-(4-((R)-10-Methyl-8-oxo-9,10,11,12-tetrahydro-8H-[1,4]diazepino[5′,6′:4,5]thieno[3,2-f]quinolin-3-yl)phenyl)piperidin-1-yl)ethyl)piperazin-1-yl)phenyl)piperidine-2,6-dione] was tested. Which IC50 did it give?
A: The IC50 was < 150 nM.

Q: How did the IC50 turn out when `C[C@@H]1CNc2c(sc3ccc4nc(-c5ccc(N6CCN(CCN7CCN(c8ccc9c(C%10CCC(=O)NC%10=O)nn(C)c9c8)CC7)CC6)cc5)ccc4c23)C(=O)N1` (stereo partly drawn) [Ex 21, 3-(1-Methyl-6-(4-(2-(4-(4-((R)-10-methyl-8-oxo-9,10,11,12-tetrahydro-8H-[1,4]diazepino[5′,6′:4,5]thieno[3,2-f]quinolin-3-yl)phenyl)piperazin-1-yl)ethyl)piperazin-1-yl)-1H-indazol-3-yl)piperidine-2,6-dione] was run?
A: The IC50 was 151 to 500 nM.

Q: `C[C@@H]1CNc2c(sc3ccc4nc(-c5ccc(C6CCN(CCN7CCC(c8ccc(C9CCC(=O)NC9=O)cc8)CC7)CC6)cc5)ccc4c23)C(=O)N1` (stereo partly drawn) [Ex 29, 3-(4-(1-(2-(4-(4-((R)-10-Methyl-8-oxo-9,10,11,12-tetrahydro-8H-[1,4]diazepino[5′,6′:4,5]thieno[3,2-f]quinolin-3-yl)phenyl)piperidin-1-yl)ethyl)piperidin-4-yl)phenyl)piperidine-2,6-dione] was tested. Which IC50 did it give?
A: Its IC50 is < 150 nM.
